Test results reported in patent publication US5952298A, “Cryptophycins” (priority 1995, dated 1999).
Where two headings read alike, the source gives them in different places.

Key:
[1] = tested on: LoVo (human colon carcinoma); test: Cytotoxicity against LoVo cell line; assay type: cell-based
[2] = tested on: SKOV3 (human ovarian carcinoma); test: Cytotoxicity against SKOV3 cell line (Table 2); assay type: cell-based
[3] = tested on: murine leukemia (L1210 or P388), murine solid tumor, human solid tumor and low malignancy fibroblast (LML) cells
[4] = tested on: KB (human nasopharyngeal carcinoma); test: Cytotoxicity against KB cell line; assay type: cell-based
[5] = tested on: pancreatic ductal adenocarcinoma #03 (Panc 03, P03); settings: SC P03
[6] = tested on: colon adenocarcinoma #38 (Colon 38, C38); settings: for % Body Wt. Loss at Nadir / Cures / T/C: SC C38; for Log Kill: mouse, in vivo
[7] = tested on: murine and human tumors implanted in mice
Procedure: Gross log kill is defmed as T-C/3.2 Td where T is the median time in days for the tumors of the treated group to reach 750 mg, C is the median time in days for the tumors of the control group to reach 750 mg, and Td is the tumor volume doubling time. […] An activity rating of +++ to ++++, which is indicative of clinical activity, is needed to effect partial or complete regression of 100-300 mg size masses of most transplanted solid tumors of mice.

[8] = tested on: colon adenocarcinoma #51 (Colon 51); test: In vivo activity, SC Colon 51 tumor; settings: Exp 1900, 9 IV inj., 67.5 mg/kg TD
[9] = tested on: Mam 16/C (taxol-sensitive mammary #16/C); test: In vivo activity, SC Mam 16/C tumor; settings: Exp 1885, 7 IV inj., 21.3 mg/kg TD
[10] = Exp 1843, 4 IV inj., 28/5 mg/kg TD
[11] = Exp 1769, 15 IV inj., 45 mg/kg TD
[12] = Exp 1887B, 6 IV inj., 30 mg/kg TD
[13] = Exp 1825, 11 IV inj., 106 mg/kg TD
[14] = Exp 1878, 9 IV inj., 82 mg/kg TD
[15] = Exp 1813, 9 IV inj., 27 mg/kg TD
[16] = Exp 1843, 7 IV inj., 23 mg/kg TD

COc1ccc(C[C@H]2NC(=O)/C=C/C[C@@H]([C@H](C)[C@H]3O[C@@H]3c3ccccc3)OC(=O)[C@H](CC(C)C)OC(=O)[C@H](C)CNC2=O)cc1 [Cryptophycin 2]
LoVo IC50 ([1]; Table 1): 0.0002 ng/mL
LoVo IC50 ([1]; Table 2): 0.021 ng/mL
SKOV3 IC50 [2]: 0.18 ng/mL
Differential in Zone Units, Corbett Assay ([3]; 25 μg/disk): > 400 zone units
Type of Cytotoxicity, Corbett Assay ([3]; 25 μg/disk): E/T

COc1ccc(C[C@H]2NC(=O)/C=C/C[C@@H]([C@H](C)/C=C/c3ccccc3)OC(=O)[C@H](CC(C)C)OC(=O)[C@H](C)CNC2=O)cc1Cl [Cryptophycin 3]
KB IC50 ([4]; Table 1): 0.3 ng/mL
LoVo IC50 ([1]; Table 1): 0.5 ng/mL
LoVo IC50 ([1]; Table 2): 0.6 ng/mL
SKOV3 IC50 [2]: 2.8 ng/mL
Differential in Zone Units, Corbett Assay ([3]; 25 μg/disk): > 400 zone units
Type of Cytotoxicity, Corbett Assay ([3]; 25 μg/disk): E/T
% Body Wt. Loss at Nadir [5, 10]: -9%
Cures [5, 10]: 0/5
Log Kill [5, 10]: < 1
T/C [5, 10]: 54%

COc1ccc(C[C@H]2NC(=O)/C=C/C[C@@H]([C@H](C)/C=C/c3ccccc3)OC(=O)[C@H](CC(C)C)OC(=O)[C@H](C)CNC2=O)cc1 [Cryptophycin 4]
KB IC50 ([4]; Table 1): 1.3 ng/mL
LoVo IC50 ([1]; Table 2): 2.5 ng/mL
SKOV3 IC50 [2]: 21 ng/mL
Differential in Zone Units, Corbett Assay ([3]; 20 μg/disk): > 400 zone units
Type of Cytotoxicity, Corbett Assay ([3]; 20 μg/disk): E/T

COC(=O)[C@H](C)CNC(=O)[C@@H](Cc1ccc(OC)c(Cl)c1)NC(=O)/C=C/C[C@H](OC(=O)[C@@H](O)CC(C)C)[C@H](C)[C@H]1O[C@@H]1c1ccccc1 [Cryptophycin 5]
KB IC50 ([4]; Table 1): 0.02 ng/mL
KB IC50 ([4]; Table 2): 12 ng/mL
SKOV3 IC50 [2]: 7.4 ng/mL

COc1ccc(C[C@@H](NC(=O)/C=C/C[C@@H]2O[C@@H](c3ccccc3)[C@H](O)[C@H]2C)C(=O)O)cc1Cl [Cryptophycin 7]
KB IC50 ([4]; Table 1): ≥ 750 ng/mL
LoVo IC50 ([1]; Table 1): ≥ 480 ng/mL

COc1ccc(C[C@H]2NC(=O)/C=C/C[C@@H]([C@H](C)[C@@H](O)[C@@H](Cl)c3ccccc3)OC(=O)[C@H](CC(C)C)OC(=O)[C@H](C)CNC2=O)cc1Cl [Cryptophycin 8]
KB IC50 ([4]; Table 1): 0.0002 ng/mL
KB IC50 ([4]; Table 2): 0.01 ng/mL
LoVo IC50 ([1]; Table 1): 0.01 ng/mL
LoVo IC50 ([1]; Table 2): 0.0022 ng/mL
SKOV3 IC50 [2]: 0.15 ng/mL
Differential in Zone Units, Corbett Assay ([3]; 30 μg/disk): > 500 zone units
Type of Cytotoxicity, Corbett Assay ([3]; 30 μg/disk): E/T
% Body Wt. Loss at Nadir [6, 11]: -2%
Cures [6, 11]: 0/5
T/C [6, 11]: > 100%
% Body Wt. Loss at Nadir [6, 12]: -2%
Cures [6, 12]: 1/5
T/C [6, 12]: 0%
Log Kill ([6]; 30 mg/kg): 2.8
Log Kill ([6]; 45 mg/kg): None
% Body Wt. Loss at Nadir [5, 13]: -6%
Cures [5, 13]: 0/5
Log Kill [5, 13]: 4.6
T/C [5, 13]: 4%
cures (in words) [7]: some cures
gross log kill activity rating [7]: +++ to ++++
in vivo activity (in words) [7]: active against a broad spectrum of tumors implanted in mice
cause of lethal toxicity observed during testing ([7]; mice): leucopenia
tumor burden T/C (mean tumor burden in treated animals/mean tumor burden untreated animals) ([7]; text summary over the tumors named in the sentence): < 10%
% Body Wt. Loss at Nadir [8]: -1%
Cures [8]: 0/5
Log Kill [8]: 1.8
T/C [8]: 7%
% Body Wt. Loss at Nadir [9]: -4.5%
Cures [9]: 0/5
Log Kill [9]: 2.5
T/C [9]: 6%

COc1ccc(C[C@H]2NC(=O)/C=C/C[C@@H]([C@H](C)[C@@H](O)[C@@H](OC)c3ccccc3)OC(=O)[C@H](CC(C)C)OC(=O)[C@H](C)CNC2=O)cc1Cl [Cryptophycin 9]
KB IC50 ([4]; Table 1): 15 ng/mL

COc1ccc(C[C@@H](NC(=O)/C=C/C[C@@H]2O[C@@H](c3ccccc3)[C@H](O)[C@H]2C)C(=O)NC[C@@H](C)C(=O)O)cc1Cl [Cryptophycin 12]
KB IC50 ([4]; Table 1): ≥ 100 ng/mL
KB IC50 ([4]; Table 2): 18 ng/mL
LoVo IC50 ([1]; Table 1): ≥ 100 ng/mL

COc1ccc(C[C@@H](NC(=O)/C=C/C[C@H](O)[C@H](C)/C=C/c2ccccc2)C(=O)NC[C@@H](C)C(=O)O)cc1Cl [Cryptophycin 14]
KB IC50 ([4]; Table 1): 1.8 ng/mL

CC(C)C[C@@H]1OC(=O)[C@H](C)CNC(=O)[C@@H](Cc2ccc(O)c(Cl)c2)NC(=O)/C=C/C[C@@H]([C@H](C)[C@H]2O[C@@H]2c2ccccc2)OC1=O [Cryptophycin 16]
KB IC50 ([4]; Table 2): 0.08 ng/mL
SKOV3 IC50 [2]: 0.64 ng/mL
% Body Wt. Loss at Nadir [5, 14]: -1%
Cures [5, 14]: 0/5
Log Kill [5, 14]: None
T/C [5, 14]: 89%

CC(C)C[C@@H]1OC(=O)[C@H](C)CNC(=O)[C@@H](Cc2ccc(O)c(Cl)c2)NC(=O)/C=C/C[C@@H]([C@H](C)/C=C/c2ccccc2)OC1=O [Cryptophycin 17]
KB IC50 ([4]; Table 2): 4.7 ng/mL
LoVo IC50 ([1]; Table 2): 5.9 ng/mL
SKOV3 IC50 [2]: 11 ng/mL

CC[C@H](C)[C@@H]1OC(=O)[C@H](C)CNC(=O)[C@@H](Cc2ccc(OC)c(Cl)c2)NC(=O)/C=C/C[C@@H]([C@H](C)/C=C/c2ccccc2)OC1=O [Cryptophycin 18]
LoVo IC50 ([1]; Table 2): 4.5 ng/mL
SKOV3 IC50 [2]: 23 ng/mL

COc1ccc(C[C@H]2NC(=O)/C=C/C[C@@H]([C@H](C)/C=C/c3ccccc3)OC(=O)[C@H](C(C)C)OC(=O)[C@H](C)CNC2=O)cc1Cl [Cryptophycin 19]
KB IC50 ([4]; Table 2): 9.8 ng/mL
SKOV3 IC50 [2]: 41 ng/mL

COc1ccc(C[C@H]2NC(=O)/C=C/C[C@@H]([C@H](C)[C@H]3O[C@@H]3c3ccccc3)OC(=O)[C@H](CC(C)C)OC(=O)CCNC2=O)cc1Cl [Cryptophycin 21]
LoVo IC50 ([1]; Table 2): 0.0003 ng/mL
SKOV3 IC50 [2]: 0.029 ng/mL
% Body Wt. Loss at Nadir [5, 15]: -11%
Cures [5, 15]: 0/5
Log Kill [5, 15]: None
T/C [5, 15]: 61%
dead (animals) [5, 15]: 1/5

COc1ccc(C[C@H]2NC(=O)/C=C/C[C@@H]([C@H](C)[C@H]3O[C@@H]3c3ccccc3)OC(=O)[C@H](CC(C)C)OC(=O)CCNC2=O)cc1 [Cryptophycin 24]
KB IC50 ([4]; Table 2): 0.12 ng/mL
LoVo IC50 ([1]; Table 2): 0.095 ng/mL
SKOV3 IC50 [2]: 0.3 ng/mL

COc1ccc(C[C@H]2NC(=O)C[C@@H](C[C@H](O)[C@H](C)/C=C/c3ccccc3)OC(=O)[C@H](CC(C)C)OC(=O)[C@H](C)CNC2=O)cc1Cl [Cryptophycin 26]
KB IC50 ([4]; Table 2): 19 ng/mL
LoVo IC50 ([1]; Table 2): 9.8 ng/mL
SKOV3 IC50 [2]: 95 ng/mL

COc1ccc(C[C@H]2NC(=O)/C=C/C[C@@H](C/C=C/c3ccccc3)OC(=O)[C@H](CC(C)C)OC(=O)[C@H](C)CNC2=O)cc1Cl [Cryptophycin 28]
KB IC50 ([4]; Table 2): 1.5 ng/mL
LoVo IC50 ([1]; Table 2): 0.75 ng/mL
SKOV3 IC50 [2]: 6.1 ng/mL

COc1ccc(C[C@H]2NC(=O)/C=C/C[C@@H]([C@H](C)/C=C/c3ccccc3)OC(=O)[C@H](CC(C)C)OC(=O)CCNC2=O)cc1Cl [Cryptophycin 29]
LoVo IC50 ([1]; Table 2): 0.49 ng/mL
SKOV3 IC50 [2]: 3.4 ng/mL

COc1ccc(C[C@H]2NC(=O)C[C@H](O)C[C@@H]([C@H](C)/C=C/c3ccccc3)OC(=O)[C@H](CC(C)C)OC(=O)[C@H](C)CNC2=O)cc1Cl [Cryptophycin 30]
KB IC50 ([4]; Table 2): 11 ng/mL

COc1c(Cl)cc(C[C@H]2NC(=O)/C=C/C[C@@H]([C@H](C)[C@H]3O[C@@H]3c3ccccc3)OC(=O)[C@H](CC(C)C)OC(=O)[C@H](C)CNC2=O)cc1Cl [Cryptophycin 31]
KB IC50 ([4]; Table 2): 0.53 ng/mL
LoVo IC50 ([1]; Table 2): 0.062 ng/mL
SKOV3 IC50 [2]: 1.9 ng/mL

COc1ccc(CC2NC(=O)CCCC(C(C)C3OC3c3ccccc3)OC(=O)C(CC(C)C)OC(=O)C(C)CNC2=O)cc1Cl (stereo not shown) [Cryptophycin 35]
% Body Wt. Loss at Nadir [5, 16]: -2%
Cures [5, 16]: 0/5
Log Kill [5, 16]: 1.3
T/C [5, 16]: 11%
in vivo activity (in words) [7]: Good in vivo activity

COc1ccc(C[C@H]2NC(=O)CCC[C@@H]([C@H](C)[C@H]3O[C@@H]3c3ccccc3)OC(=O)[C@H](CC(C)C)OC(=O)[C@H](C)CNC2=O)cc1Cl [Cryptophycin 35]
KB IC50 ([4]; Table 2): 0.055 ng/mL
SKOV3 IC50 [2]: 0.092 ng/mL

COc1ccc(C[C@H]2NC(=O)/C=C/C[C@@H](C[C@H]3O[C@@H]3c3ccccc3)OC(=O)[C@H](CC(C)C)OC(=O)[C@H](C)CNC2=O)cc1Cl [Cryptophycin 40]
KB IC50 ([4]; Table 2): 9.0 ng/mL
LoVo IC50 ([1]; Table 2): 1.0 ng/mL

CC[C@H](C)[C@@H]1OC(=O)[C@H](C)CNC(=O)[C@@H](Cc2ccc(OC)c(Cl)c2)NC(=O)/C=C/C[C@@H]([C@H](C)[C@H]2O[C@@H]2c2ccccc2)OC1=O [Cryptophycin 54]
KB IC50 ([4]; Table 2): 0.80 ng/mL
LoVo IC50 ([1]; Table 2): 2.2 ng/mL
SKOV3 IC50 [2]: 2.2 ng/mL
